# Experimental data published in ChEMBL document CHEMBL3244132, “Semisynthetic aminoglycoside antibacterials. 6. Synthesis of sisomicin, Antibiotic G-52, and novel 6'-substituted analogues of sisomicin from aminoglycoside 66-40C” (J Med Chem, 1978).
# Activity calls are given as the source filed them. The rule behind the calls is not given here.
# Assays:
# Pseudomonas aeruginosa [1] = test: Antimicrobial activity against Pseudomonas aeruginosa St. M. 762 by tube dilution method; format: functional
# Entamoeba histolytica = test: Antiprotozoal activity against Entamoeba histolytica JH; format: functional
# Escherichia coli [2] = test: Antimicrobial activity against Escherichia coli JR88 carrying AAC(3) by tube dilution method; format: functional
# Providencia rettgeri [3] = test: Antimicrobial activity against Providencia rettgeri Anderson by tube dilution method; format: functional
# Escherichia coli [4] = test: Antimicrobial activity against Escherichia coli ATCC 10536 by tube dilution method; format: functional
# Pseudomonas aeruginosa [5] = test: Antimicrobial activity against Pseudomonas aeruginosa GN 315 carrying AAC(6') by tube dilution method; format: functional
# Pseudomonas aeruginosa [6] = test: Antimicrobial activity against Pseudomonas aeruginosa Stone 130 carrying AAC(3) by tube dilution method; format: functional
# Bacillus subtilis = test: Antimicrobial activity against Bacillus subtilis ATCC 6633 by tube dilution method; format: functional
# Streptococcus pyogenes [7] = test: Antimicrobial activity against Streptococcus pyogenes C by tube dilution method; format: functional
# Histomonas meleagridis [8] = test: Antiprotozoal activity against Histomonas meleagridis; format: functional
# Staphylococcus aureus [9] = test: Antimicrobial activity against Staphylococcus aureus Ziegler by tube dilution method; format: functional
# Streptococcus pyogenes [10] = test: Antimicrobial activity against Streptococcus pyogenes Alvarez by tube dilution method; format: functional
# Trichomonas vaginalis = test: Antiprotozoal activity against Trichomonas vaginalis after 48 hrs; format: functional
# Escherichia coli [11] = test: Antimicrobial activity against Escherichia coli HL97/W677 carrying AAC(6') by tube dilution method; format: functional
# Salmonella typhimurium = test: Antimicrobial activity against Salmonella typhimurium Gr. B. by tube dilution method; format: functional, Salmonella enterica subsp. enterica serovar Typhimurium; conditions: Salmonella enterica
# Providencia = test: Antimicrobial activity against Providencia 164 carrying AAC(2')-I by tube dilution method; format: functional
# Klebsiella pneumoniae [12] = test: Antimicrobial activity against Klebsiella pneumoniae Adler 17 carrying APH(3')-I by tube dilution method; format: functional
# Staphylococcus aureus [13] = test: Antimicrobial activity against Staphylococcus aureus 209 P by tube dilution method; format: functional
# [14] = Acute toxicity in albino CF1 mouse; format: organism-based; conditions: in vivo
# Escherichia coli [15] = test: Antimicrobial activity against Escherichia coli Baker 2 carrying APH(3')-I by tube dilution method; format: functional
# Proteus mirabilis = test: Antimicrobial activity against Proteus mirabilis Harding by tube dilution method; format: functional
# Serratia marcescens = test: Antimicrobial activity against Serratia marcescens Dalton by tube dilution method; format: functional
# Klebsiella pneumoniae [16] = test: Antimicrobial activity against Klebsiella pneumoniae Georgetown 3694 carrying APH(2'') by tube dilution method; format: functional
# Pseudomonas aeruginosa [17] = test: Antimicrobial activity against Pseudomonas aeruginosa St. M. 1395 by tube dilution method; format: functional
# Providencia rettgeri [18] = test: Antimicrobial activity against Providencia rettgeri Membel by tube dilution method; format: functional
# Escherichia coli [19] = test: Antimicrobial activity against Escherichia coli LA290R55 carrying ANT(2'') by tube dilution method; format: functional
# Staphylococcus aureus [20] = test: Antimicrobial activity against Staphylococcus aureus Wood by tube dilution method; format: functional
# Streptococcus pyogenes [21] = test: Antimicrobial activity against Streptococcus pyogenes Group A Cruz by tube dilution method; format: functional
# Streptococcus pyogenes [22] = test: Antimicrobial activity against Streptococcus pyogenes 27 by tube dilution method; format: functional
# Staphylococcus aureus [23] = test: Antimicrobial activity against Staphylococcus aureus 59N by tube dilution method; format: functional
# [24] = system: Heligmosomoides polygyrus; test: Anthelmintic activity against Nematospiroides dubius infected in mouse at 195 mg/kg qd for 5 days administered after 2 weeks of infection; format: functional, organism-based; design: dose 195 mg/kg
# Histomonas meleagridis [25] = test: Antiprotozoal activity against Histomonas meleagridis at 20 ug/ml; format: functional
# Syphacia obvelata = test: Anthelmintic activity against Syphacia obvelata infected in mouse at 195 mg/kg qd for 5 days administered after 2 weeks of infection; format: functional, organism-based; design: dose 195 mg/kg
# Rodentolepis nana = test: Anthelmintic activity against Hymenolepis nana infected in mouse at 195 mg/kg qd for 5 days administered after 2 weeks of infection; format: functional, organism-based; design: dose 195 mg/kg
SMILES,MIC (Pseudomonas aeruginosa [1]),MIC (Escherichia coli [2]),MIC (Providencia rettgeri [3]),MIC (Escherichia coli [4]),MIC (Pseudomonas aeruginosa [5]),MIC (Pseudomonas aeruginosa [6]),MIC (Bacillus subtilis),MIC (Streptococcus pyogenes [7]),MIC (Staphylococcus aureus [9]),MIC (Streptococcus pyogenes [10]),MIC (Escherichia coli [11]),MIC (Salmonella typhimurium),MIC (Providencia),MIC (Klebsiella pneumoniae [12]),MIC (Staphylococcus aureus [13]),LD50 [14],MIC (Escherichia coli [15]),MIC (Proteus mirabilis),MIC (Serratia marcescens),MIC (Klebsiella pneumoniae [16]),other results
CN[C@@H]1[C@@H](O)[C@@H](O[C@@H]2[C@@H](O)[C@H](O[C@H]3OC(CNCCO)=CC[C@H]3N)[C@@H](N)C[C@H]2N)OC[C@]1(C)O,0.3 µg/mL,> 25 µg/mL,> 25 µg/mL,0.075 µg/mL,0.3 µg/mL,> 25 µg/mL,0.3 µg/mL,> 25 µg/mL,0.03 µg/mL,17.5 µg/mL,0.75 µg/mL,0.75 µg/mL,> 25 µg/mL,0.075 µg/mL,0.03 µg/mL,135 mg/kg,3 µg/mL,0.3 µg/mL,0.75 µg/mL,> 25 µg/mL,Activity (Entamoeba histolytica): inactive; Activity (Histomonas meleagridis [8]): inactive; Activity (Trichomonas vaginalis): inactive; MIC (Pseudomonas aeruginosa [17]): 0.3 µg/mL; MIC (Providencia rettgeri [18]): 0.75 µg/mL; MIC (Escherichia coli [19]): 7.5 µg/mL; MIC (Staphylococcus aureus [20]): 0.03 µg/mL; MIC (Streptococcus pyogenes [21]): 17.5 µg/mL
CN[C@@H]1[C@@H](O)[C@@H](O[C@@H]2[C@@H](O)[C@H](O[C@H]3OC(CNC(C)(C)C)=CC[C@H]3N)[C@@H](N)C[C@H]2N)OC[C@]1(C)O,7.5 µg/mL,> 25 µg/mL,> 25 µg/mL,0.75 µg/mL,7.5 µg/mL,> 25 µg/mL,< 0.01 µg/mL,17.5 µg/mL,0.03 µg/mL,> 25 µg/mL,3 µg/mL,3 µg/mL,17.5 µg/mL,7.5 µg/mL,0.03 µg/mL,90 mg/kg,7.5 µg/mL,3 µg/mL,7.5 µg/mL,> 25 µg/mL,Activity (Entamoeba histolytica): inactive; MIC (Streptococcus pyogenes [22]): 7.5 µg/mL; Activity (Histomonas meleagridis [8]): inactive; MIC (Staphylococcus aureus [23]): 0.75 µg/mL; Activity (Trichomonas vaginalis): inactive; MIC (Pseudomonas aeruginosa [17]): 17.5 µg/mL; MIC (Providencia rettgeri [18]): 3 µg/mL; MIC (Escherichia coli [19]): 17.5 µg/mL; MIC (Staphylococcus aureus [20]): 0.03 µg/mL; MIC (Streptococcus pyogenes [21]): 3 µg/mL
CN[C@@H]1[C@@H](O)[C@@H](O[C@@H]2[C@@H](O)[C@H](O[C@H]3OC(CNCCc4ccccc4)=CC[C@H]3N)[C@@H](N)C[C@H]2N)OC[C@]1(C)O,> 25 µg/mL,> 25 µg/mL,> 25 µg/mL,0.75 µg/mL,> 25 µg/mL,> 25 µg/mL,0.03 µg/mL,> 25 µg/mL,7.5 µg/mL,> 25 µg/mL,0.75 µg/mL,17.5 µg/mL,> 25 µg/mL,> 25 µg/mL,3 µg/mL,30 mg/kg,7.5 µg/mL,> 25 µg/mL,> 25 µg/mL,> 25 µg/mL,Activity (Entamoeba histolytica): inactive; MIC (Streptococcus pyogenes [22]): 17.5 µg/mL; Activity (Histomonas meleagridis [8]): inactive; MIC (Staphylococcus aureus [23]): 3 µg/mL; Activity (Trichomonas vaginalis): inactive; MIC (Pseudomonas aeruginosa [17]): > 25 µg/mL; MIC (Providencia rettgeri [18]): > 25 µg/mL; MIC (Escherichia coli [19]): > 25 µg/mL; MIC (Staphylococcus aureus [20]): 3 µg/mL; MIC (Streptococcus pyogenes [21]): > 25 µg/mL
CN[C@@H]1[C@@H](O)[C@@H](O[C@@H]2[C@@H](O)[C@H](O[C@H]3OC(CO)=CC[C@H]3N)[C@@H](N)C[C@H]2N)OC[C@]1(C)O,3 µg/mL,> 25 µg/mL,> 25 µg/mL,0.75 µg/mL,> 25 µg/mL,> 25 µg/mL,0.075 µg/mL,> 25 µg/mL,0.3 µg/mL,> 25 µg/mL,0.3 µg/mL,3 µg/mL,> 25 µg/mL,3 µg/mL,0.3 µg/mL,65 mg/kg,17.5 µg/mL,3 µg/mL,3 µg/mL,> 25 µg/mL,MIC (Entamoeba histolytica): 10 µg/mL; Activity [24]: inactive; Activity (Histomonas meleagridis [25]): inactive; MIC (Streptococcus pyogenes [22]): > 25 µg/mL; MIC (Staphylococcus aureus [23]): 0.075 µg/mL; MIC (Trichomonas vaginalis): < 10 µg/mL; Activity (Syphacia obvelata): inactive; Activity (Rodentolepis nana): inactive; MIC (Pseudomonas aeruginosa [17]): 17.5 µg/mL; MIC (Providencia rettgeri [18]): > 25 µg/mL; MIC (Escherichia coli [19]): > 25 µg/mL; MIC (Staphylococcus aureus [20]): 0.3 µg/mL; MIC (Streptococcus pyogenes [21]): > 25 µg/mL
CNCC1=CC[C@@H](N)[C@@H](O[C@H]2[C@H](O)[C@@H](O[C@H]3OC[C@](C)(O)[C@H](NC)[C@H]3O)[C@H](N)C[C@@H]2N)O1,0.3 µg/mL,> 25 µg/mL,> 25 µg/mL,0.3 µg/mL,0.3 µg/mL,> 25 µg/mL,< 0.01 µg/mL,3 µg/mL,0.03 µg/mL,> 25 µg/mL,0.75 µg/mL,3 µg/mL,> 25 µg/mL,0.075 µg/mL,< 0.01 µg/mL,50 mg/kg,0.75 µg/mL,0.75 µg/mL,0.3 µg/mL,> 25 µg/mL,Activity (Entamoeba histolytica): inactive; MIC (Streptococcus pyogenes [22]): 0.3 µg/mL; Activity (Histomonas meleagridis [8]): inactive; MIC (Staphylococcus aureus [23]): 0.03 µg/mL; Activity (Trichomonas vaginalis): inactive; MIC (Pseudomonas aeruginosa [17]): 0.3 µg/mL; MIC (Providencia rettgeri [18]): 3 µg/mL; MIC (Escherichia coli [19]): 17.5 µg/mL; MIC (Staphylococcus aureus [20]): < 0.01 µg/mL; MIC (Streptococcus pyogenes [21]): 0.3 µg/mL
CN[C@@H]1[C@@H](O)[C@@H](O[C@@H]2[C@@H](O)[C@H](O[C@H]3OC(CN)=CC[C@H]3N)[C@@H](N)C[C@H]2N)OC[C@]1(C)O [SISOMICIN],0.3 µg/mL,17.5 µg/mL,> 25 µg/mL,0.75 µg/mL,7.5 µg/mL,17.5 µg/mL,< 0.01 µg/mL,17.5 µg/mL,0.03 µg/mL,7.5 µg/mL,7.5 µg/mL,0.3 µg/mL,3 µg/mL,0.3 µg/mL,0.03 µg/mL,34 mg/kg,0.75 µg/mL,0.3 µg/mL,0.3 µg/mL,7.5 µg/mL,Activity (Entamoeba histolytica): Active; MIC (Streptococcus pyogenes [22]): 3 µg/mL; Activity (Histomonas meleagridis [8]): Active; MIC (Staphylococcus aureus [23]): 0.03 µg/mL; Activity (Trichomonas vaginalis): Active; MIC (Pseudomonas aeruginosa [17]): 0.3 µg/mL; MIC (Providencia rettgeri [18]): 3 µg/mL; MIC (Escherichia coli [19]): 7.5 µg/mL; MIC (Staphylococcus aureus [20]): 0.03 µg/mL; MIC (Streptococcus pyogenes [21]): 7.5 µg/mL
